Data: article PMC4105021 (ChemMedChem, 2014)

Legend:
[1] = tested on: human TLR2, TLR3, TLR4, TLR5, TLR7, TLR9, TLR10, Nod1 and Nod2; experiment: counter-screen in reporter cell lines specific for other human TLRs and Nods; format: cell-based
[2] = tested on: human peripheral blood mononuclear cells; format: cell-based; conditions: human PBMCs and whole human blood, Fig. 6

## CCCCOc1cc2ccccc2nc1N [Compound 6, 3-butoxyquinolin-2-amine]
[1]
  specificity in counter-screens: specific for human TLR8

## CCCCCc1cc2ccccc2nc1N [Compound 14b, 3-pentylquinolin-2-amine]
[2]
  cytokine/chemokine induction profile: induction of a specific set of chemokines and proinflammatory cytokines, including interleukins 12 and 18

## CCCCSc1cc2ccccc2nc1N [Compound 12, 3-(butylthio)quinolin-2-amine]
[1]
  specificity in counter-screens: specific for human TLR8

## CCCCNc1cc2ccccc2nc1N [Compound 9, N^3-butylquinoline-2,3-diamine]
[1]
  specificity in counter-screens: specific for human TLR8
